Reference: ChEMBL document CHEMBL4665703, “Structurally Diverse Indole Alkaloids with Vasorelaxant Activity from Melodinus hemsleyanus” (J Nat Prod, 2020)
Counter-ions that a name gives are not always drawn.

Test system: Aorta
Assay: Vasorelaxant activity in Sprague-Dawley rat aortic artery assessed as reduction in phenylephrine-induced contractions
Format: functional, tissue-based

Row | Compound | EC50
1 | CC[C@]12C=CCN3CCc4c(n(c5cc(OC)ccc45)[C@](O)(C(=O)OC)C1)[C@@H]32 | 1.9 µM
2 | CC[C@]12CCCN3CCc4c(n(c5ccccc45)[C@@H](OC)C1)[C@@H]32 | > 10 µM
3 | Cc1ccc(N(CC2=NCCN2)c2cccc(O)c2)cc1 [PHENTOLAMINE MESYLATE] | 0.1 µM
4 | CC[C@@]12CC(C(=O)OC)=C3Nc4cc(O)ccc4[C@@]34CCN(C(=O)[C@H]3O[C@H]31)[C@@H]24 | > 10 µM
5 | CC[C@]12C=CCN3CCc4c(n(c5cc(OC)ccc45)[C@@](O)(C(=O)OC)C1)[C@@H]32 | 2.2 µM
6 | CC[C@]12C=CCN3CCc4c(n(c5cc(O)ccc45)[C@@](O)(C(=O)OC)C1)[C@@H]32 | 2.8 µM
7 | CC[C@]12CC(=O)N3CC[C@]4(C(=C(C(=O)OC)C1)Nc1cc(O)ccc14)[C@@H]32 | > 10 µM
8 | CC[C@]12C=CCN3CCc4c(n(c5ccccc45)[C@@](O)(C(=O)OC)C1)[C@@H]32 | 1.9 µM
9 | COC(=O)[C@@H](C)[C@]12C=CCN3CC[C@@]4(c5ccccc5NC(=O)[C@H]4C1)[C@@H]32 | > 10 µM
10 | C[C@@H]1C(=O)O[C@]23N4CC=C[C@]12C[C@@H]1C(=O)Nc2ccccc2[C@@]13CC4 | > 10 µM
11 | C[C@H]1C(=O)[C@@]23C[C@@]14C=CCN1CC[C@@]2(c2ccccc2NC3=O)[C@@H]14 | > 10 µM
12 | CC[C@]12CCC[N+]3([O-])CC[C@]4(C(=C(C(=O)OC)C1)Nc1cc(O)ccc14)[C@H]23 (some centres not stated) | > 10 µM
13 | COC(=O)[C@@H]1C[C@@]23CCC[N+]4([O-])CC[C@@]5(c6ccccc6N[C@]15CC2)[C@H]34 (some centres not stated) | > 10 µM
14 | CC[C@]12CCCN3CC[C@]4(C(=C(C(=O)OC)C1)Nc1cc(O)ccc14)[C@@H]32 | > 10 µM
15 | C[C@@H]1C(=O)[C@@]23C[C@@]14C=CCN1CC[C@@]2(c2ccccc2NC3=O)[C@@H]14 | > 10 µM
16 | CC[C@]12C=CCN3CCc4c(n(c5ccccc45)[C@](O)(C(=O)OC)C1)[C@@H]32 | 3.8 µM
17 | COC(=O)[C@@H]1C[C@@]23CCCN4CC[C@@]5(c6ccccc6N[C@]15CC2)[C@@H]43 | > 10 µM
18 | CC[C@]12CCCN3CCc4c(n(c5ccccc45)[C@@H](O)C1)[C@@H]32 [VINCANOL] | > 10 µM
19 | CC[C@]12C=CCN3CCc4c(n(c5cc(O)ccc45)[C@](O)(C(=O)OC)C1)[C@@H]32 | 2.4 µM
20 | CC[C@]12C=CC(=O)N3CC[C@]4(C(=C(C(=O)OC)C1)Nc1ccccc14)[C@@H]32 | 0.8 µM
21 | C[C@H](O)[C@@]12C[C@@H](C(N)=O)c3[nH]c4ccccc4c3CCN(C[C@H](O)[C@H]1O)C2=O | > 10 µM
22 | CC[C@]12C=CCN3CC[C@]4(C(=C(C(=O)OC)C1)Nc1ccccc14)[C@@H]32 [TABERSONINE] | > 10 µM
